The text below walks through data of patent US8946438B2, “Benzamides, production thereof, and use thereof as medicaments” (Boehringer Ingelheim International GmbH, priority 2008, dated 2015).

In the experiment the target is p38 MAP-kinase (Homo sapiens, UniProt Q16539). The experiment is described as follows: Enzymatic assay: inhibition of p38 MAP-kinase (phosphorylation of GST-tagged ATF2, chemoluminescence bead readout). Type of experiment: biochemical. As to conditions: inhibitor 1 μM; activated p38 MAP-kinase 1 nM; 4 h preincubation; ATP 100 μM; ATF2 10 nM; read-out: % inhibitory effect at 1 μM. As to the method:
In this, the amount of a substrate phosphorylated by the kinase is quantified. The test is carried out as follows:
The kinase reaction is carried out in the presence of HEPES (20 mM, pH 7), MgCl2 (10 mM), DTT (1 mM) and TWEEN20 (0.01%). First, dimethylsulphoxide or inhibitor (final concentration: 1 μM) dissolved in dimethylsulphoxide are placed in a reaction vessel. Then the activated p38 MAP-kinase (final concentration 1 nM) is added and the mixture is incubated for 4 h at ambient temperature. Then a mixture of substrate (GST-tagged ATF2) and ATP is added and everything is incubated together for a further hour (final concentration ATP: 100 μM; final concentration ATF2: 10 nM).
The concentration of phosphorylated ATF2 is quantified by chemoluminescence-induced light emission. For this, a glutathione donor bead (final concentration: 5 μg/ml) which binds to the gluthathione on the ATF2 and phospho-ATF2 antibodies are added to the reaction mixture (final concentration: 3 nM; this binds the phosphate group added by the kinase reaction) to which a Protein A Acceptor Bead (final concentration: 5 μg/ml) binds. These components are dissolved in a buffer which contains 20 mM HEPES pH 7.0, 200 mM NaCL, 80 mM EDTA as well as 0.3% BSA. This reaction mixture is incubated in the dark for 1 hour at ambient temperature. When these beads come physically close, visible light is emitted which is measured in a photometer at 520-620 nm.
To determine the inhibitory activity of the compounds according to the invention a calculation is made to determine the percentage by which the kinase activity is inhibited at a fixed inhibitor concentration of 1 μM. The maximum activity is determined by non-inhibited kinase. The minimum activity or nonspecific background activity is determined using a reaction mixture without kinase. […] Table 2 summarises the degree of inhibition of the enzyme p38 MAP-kinase—as described hereinbefore—of the compounds according to the invention detailed in the section “Preparation of the final compounds”.

Chain of p38 MAP-kinase (Q16539 whole entry): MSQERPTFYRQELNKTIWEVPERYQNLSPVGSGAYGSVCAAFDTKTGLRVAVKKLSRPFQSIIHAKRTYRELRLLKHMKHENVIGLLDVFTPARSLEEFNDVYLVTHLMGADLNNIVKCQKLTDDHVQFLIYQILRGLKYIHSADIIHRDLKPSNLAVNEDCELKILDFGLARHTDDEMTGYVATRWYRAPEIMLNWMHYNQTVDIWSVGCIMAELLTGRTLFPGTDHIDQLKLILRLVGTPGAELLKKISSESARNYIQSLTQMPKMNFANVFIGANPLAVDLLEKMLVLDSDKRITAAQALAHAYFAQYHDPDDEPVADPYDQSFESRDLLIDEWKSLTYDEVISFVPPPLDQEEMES

`CNc1cc(Oc2cc(C(=O)Nc3cc(C(C)(C)C)cc(NS(C)(=O)=O)c3OC)ccc2C)ncn1` [3(1), N-(5-tert-butyl-3-methanesulphonylamino-2-methoxy-phenyl)-4-methyl-3-(6-methylamino-pyrimidin-4-yloxy)-benzamide]: the inhibition at 1 µM was determined as 97%.

Regarding `COc1c(NC(=O)c2ccc(C)c(Oc3cc(NCCO)ncn3)c2)cc(C(C)(C)C)cc1NS(C)(=O)=O` [4(1), N-(5-tert-butyl-3-methanesulphonylamino-2-methoxy-phenyl)-3-[6-(2-hydroxy-ethylamino)-pyrimidin-4-yloxy]-4-methyl-benzamide], the inhibition at 1 µM stood at 96.8%. For `COc1c(NC(=O)c2ccc(C)c(Oc3cc(NCCN(C)C)ncn3)c2)cc(C(C)(C)C)cc1NS(C)(=O)=O` [4(2), N-(5-tert-butyl-3-methanesulphonylamino-2-methoxy-phenyl)-3-[6-(2-dimethylamino-ethylamino)-pyrimidin-4-yloxy]-4-methyl-benzamide], the inhibition at 1 µM was determined as 94.8%. For `COc1c(NC(=O)c2ccc(C)c(Oc3cc(N4CCNC(=O)C4)ncn3)c2)cc(C(C)(C)C)cc1NS(C)(=O)=O` [4(3), N-(5-tert-butyl-3-methanesulphonylamino-2-methoxy-phenyl)-4-methyl-3-[6-(3-oxo-piperazin-1-yl)-pyrimidin-4-yloxy]-benzamide] the value was 96.3%. Under `COc1c(NC(=O)c2ccc(C)c(Oc3cc(N4CCCC4)ncn3)c2)cc(C(C)(C)C)cc1NS(C)(=O)=O` [4(4), N-(5-tert-butyl-3-methanesulphonylamino-2-methoxy-phenyl)-4-methyl-3-(6-pyrrolidin-1-yl-pyrimidin-4-yloxy)-benzamide] stands 97.5%; under `COc1c(NC(=O)c2ccc(C)c(Oc3cc(N4CCOCC4)ncn3)c2)cc(C(C)(C)C)cc1NS(C)(=O)=O` [4(5), N-(5-tert-butyl-3-methanesulphonylamino-2-methoxy-phenyl)-4-methyl-3-(6-morpholin-4-yl-pyrimidin-4-yloxy)-benzamide], 97.4%; under `COc1c(NC(=O)c2ccc(C)c(Oc3ccnc(N4CC[C@@H](N(C)C)C4)n3)c2)cc(C(C)(C)C)cc1NS(C)(=O)=O` [4(6), (R)-N-(5-tert-butyl-3-methanesulphonylamino-2-methoxy-phenyl)-3-[2-(3-dimethylamino-pyrrolidin-1-yl)-pyrimidin-4-yloxy]-4-methyl-benzamide], 98%. Regarding `COc1c(NC(=O)c2ccc(C)c(Oc3ccnc(N4CC[C@H](N(C)C)C4)n3)c2)cc(C(C)(C)C)cc1NS(C)(=O)=O` [4(7), (S)-N-(5-tert-butyl-3-methanesulphonylamino-2-methoxy-phenyl)-3-[2-(3-dimethylamino-pyrrolidin-1-yl)-pyrimidin-4-yloxy]-4-methyl-benzamide], the inhibition at 1 µM came to 98.6%.

For `COc1c(NC(=O)c2ccc(C)c(Oc3ccnc(N4CCC(N(C)C)CC4)n3)c2)cc(C(C)(C)C)cc1NS(C)(=O)=O` [4(8), N-(5-tert-butyl-3-methanesulphonylamino-2-methoxy-phenyl)-3-[2-(4-dimethylamino-piperidin-1-yl)-pyrimidin-4-yloxy]-4-methyl-benzamide], the inhibition at 1 µM was determined as 98.6%. Under `COc1c(NC(=O)c2ccc(C)c(Oc3ccnc(NC4CCN(C)CC4)n3)c2)cc(C(C)(C)C)cc1NS(C)(=O)=O` [4(9), N-(5-tert-butyl-3-methanesulphonylamino-2-methoxy-phenyl)-4-methyl-3-[2-(1-methyl-piperidin-4-ylamino)-pyrimidin-4-yloxy]-benzamide] stands 98.6%; under `COc1c(NC(=O)c2ccc(C)c(Oc3cc(NC4CCN(C)CC4)ncn3)c2)cc(C(C)(C)C)cc1NS(C)(=O)=O` [4(10), N-(5-tert-butyl-3-methanesulphonylamino-2-methoxy-phenyl)-4-methyl-3-[6-(1-methyl-piperidin-4-ylamino)-pyrimidin-4-yloxy]-benzamide], 100%. Take `COc1c(NC(=O)c2ccc(C)c(Oc3cc(N4CCC(N(C)C)CC4)ncn3)c2)cc(C(C)(C)C)cc1NS(C)(=O)=O` [4(11), N-(5-tert-butyl-3-methanesulphonylamino-2-methoxy-phenyl)-3-[6-(4-dimethylamino-piperidin-1-yl)-pyrimidin-4-yloxy]-4-methyl-benzamide]: the inhibition at 1 µM amounted to 99.1%. Consider `COc1c(NC(=O)c2ccc(C)c(Oc3cc(N4CC[C@@H](N(C)C)C4)ncn3)c2)cc(C(C)(C)C)cc1NS(C)(=O)=O` [4(12), N-(5-tert-butyl-3-methanesulphonylamino-2-methoxy-phenyl)-3-[6-((R)-3-dimethylamino-pyrrolidin-1-yl)-pyrimidin-4-yloxy]-4-methyl-benzamide], for which the inhibition at 1 µM came out at 95.8%. Turning to `COc1c(NC(=O)c2ccc(C)c(Oc3cc(N4CC[C@H](N(C)C)C4)ncn3)c2)cc(C(C)(C)C)cc1NS(C)(=O)=O` [4(13), N-(5-tert-butyl-3-methanesulphonylamino-2-methoxy-phenyl)-3-[6-((S)-3-dimethylamino-pyrrolidin-1-yl)-pyrimidin-4-yloxy]-4-methyl-benzamide], the inhibition at 1 µM came out at 96.3%. In the case of `COc1c(NC(=O)c2ccc(Cl)c(Oc3cc(NC4CCN(C)CC4)ncn3)c2)cc(C(C)(C)C)cc1NS(C)(=O)=O` [4(14), N-(5-tert-butyl-3-methanesulphonylamino-2-methoxy-phenyl)-4-chloro-3-[6-(1-methyl-piperidin-4-ylamino)-pyrimidin-4-yloxy]-benzamide], the inhibition at 1 µM worked out at 99.4%. Under `COc1c(NC(=O)c2ccc(Cl)c(Oc3ccnc(NC4CCN(C)CC4)n3)c2)cc(C(C)(C)C)cc1NS(C)(=O)=O` [4(15), N-(5-tert-butyl-3-methanesulphonylamino-2-methoxy-phenyl)-4-chloro-3-[2-(1-methyl-piperidin-4-ylamino)-pyrimidin-4-yloxy]-benzamide] stands 99.6%; under `COc1c(NC(=O)c2ccc(C)c(Oc3ccnc(N(C)C4CCN(C)CC4)n3)c2)cc(C(C)(C)C)cc1NS(C)(=O)=O` [4(16), N-(5-tert-butyl-3-methanesulphonylamino-2-methoxy-phenyl)-4-methyl-3-{2-[methyl-(1-methyl-piperidin-4-yl)-amino]-pyrimidin-4-yloxy}-benzamide], 99.4%; under `COc1c(NC(=O)c2ccc(C)c(Oc3cc(N(C)C4CCN(C)CC4)ncn3)c2)cc(C(C)(C)C)cc1NS(C)(=O)=O` [4(17), N-(5-tert-butyl-3-methanesulphonylamino-2-methoxy-phenyl)-4-methyl-3-{6-[methyl-(1-methyl-piperidin-4-yl)-amino]-pyrimidin-4-yloxy}-benzamide], 98.7%. Under `COc1c(NC(=O)c2ccc(C)c(Oc3ccnc(N[C@H]4CC[C@H](N(C)C)CC4)n3)c2)cc(C(C)(C)C)cc1NS(C)(=O)=O` [4(18), N-(5-tert-butyl-3-methanesulphonylamino-2-methoxy-phenyl)-3-[2-(trans-4-dimethylamino-cyclohexylamino)-pyrimidin-4-yloxy]-4-methyl-benzamide] stands 99%. As to `COc1c(NC(=O)c2ccc(C)c(Oc3ccnc(N(C)C4CCN(C)C4)n3)c2)cc(C(C)(C)C)cc1NS(C)(=O)=O` (centres unmarked) [4(19), N-(5-tert-butyl-3-methanesulphonylamino-2-methoxy-phenyl)-4-methyl-3-{2-[methyl-(1-methyl-pyrrolidin-3-yl)-amino]-pyrimidin-4-yloxy}-benzamide], the inhibition at 1 µM was 98.6%.
